Like-named read-outs stand apart in the source and are kept apart here.

Series [1] concerns EGFR expressing cells (e.g. A431, HeLa). In kind it is cell-based. On the set-up: key: Cell killing activity (+ or −); Cell killing activity (+ or −). The source says: The saponin is either linked to the ligand directly, or via a (cleavable) linker, via a scaffold, a carrier protein, etc., etc.
For a further series, the system named is A431 cells. The series is classed as cell-based, human. To be noted: chloroquine coadministration, with cetuximab-saporin (FIG. 52). The procedure:
Cells were seeded in a 96 well plate at 5.000-10.000 c/w in 100 μL/well and incubated overnight at 37° C. […] The media was removed from the cell culture plate and replaced by 180 μL culture media, followed by the addition of 20 μL treatment-mix/well. […] In the case that endosomal acidification inhibitors (chloroquine (Sigma Aldrich) or bafilomycin A1 (Enzo Life Sciences)) were used, the cell culture media in step 1 of treatment was replaced by 180 μL media containing 1 μM chloroquine or 0.2 μM bafilomycin A1. The plate was incubated for 1 hour at 37° C., before the 10× treatment-mix samples were added. The remaining incubation and treatment steps were performed according to standard procedures known in the field.

Series [2] can be described thus: pH dependent hydrolysis of the hydrazone bond (MALDI-TOF-MS). The series is classed as physicochemical. To be noted: HCl solution at pH 3.
For series [3], the system named is HeLa cells. As to the kind of experiment: Cell-based bioassay of chemically modified SO1861 with dianthin-EGF (Example 8). The procedure: HeLa cells were incubated for 72 h with the following constructs and cell viability before and after the 72 h-incubation was assessed. In the experiments, cells were exposed to 1.5 μM dianthin-EGF conjugate. A negative control were cells incubated with buffer vehicle and 10 microgram/ml saponin, without dianthin-EGF. Cell viability was set to 100% for the control in which both saponin and EGF-dianthin were omitted. […] Cell viability after 72 h was essentially 0%. For the chemically modified saponin variants, 10 microgram/ml saponin was tested in combination with 1.5 μM dianthin-EGF.

Series [4] relates to HeLa cells. The experiment in a line: Cell viability assay, inhibition of SO1861-mediated endosomal escape by polymeric structures (Example 19). In kind it is cell-based. Conditions: SO1861 series + […] dianthin-EGF, 500 nM PAMAM (derivative) or chloroquine, 667 nM dendron.
Another series deals with NIH-3T3 cells. To be noted: saporins; cited from earlier work.
For series [5] the following is noted: combinatory treatment with saponins; cited from earlier work.
In another series the test system is mammalian cells. As to the kind of experiment: Cell-based bioassay of endosomal escape enhancement by QS-21. To be noted: 2.5 microgram/ml; effector moiety EGF-dianthin. From the text:
The effector moiety exposed to the cells was EGF-dianthin.

Series [6] relates to SK-BR-3, JIMT-1, MDA-MB-468, A431, CaSki, HeLa, A2058, BT-474. The experiment in a line: Relative cell viability, mAb / toxin / mAb-toxin monotherapy (FIG. 11). In kind it is cell-based. Conditions: panel of cell lines. On the set-up: dose or concentration left out as unconfirmed.
Description: After treatment the cells were incubated for 72 hr at 37° C. before the cell viability was determined by a MTS-assay, performed according to the manufacturer's instruction (CellTiter 96® AQueous One Solution Cell Proliferation Assay, Promega). Briefly, the MTS solution was diluted 20× in DMEM without phenol red (PAN-Biotech GmbH) supplemented with 10% FBS (PAN-Biotech GmbH). […] Subsequently, the optical density at 492 nm was measured on a Thermo Scientific Multiskan FC plate reader (Thermo Scientific). For quantification the background signal of ‘medium only’ wells was subtracted from all other wells, before the ratio of untreated/treated cells was calculated, by dividing the background corrected signal of untreated wells over the background corrected signal of the treated wells.

In the case of `CC(=O)OC1C(C)OC(OC2C(C)OC(OC(=O)[C@]34CCC(C)(C)CC3C3=CCC5[C@@]6(C)CC[C@H](OC7OC(C(=O)O)C(O)C(OC8OCC(O)C(O)C8O)C7OC7OC(CO)C(O)C(O)C7O)[C@@](C)(/C=N/NC(=O)CCCCCN7C(=O)C=CC7=O)C6CC[C@@]5(C)[C@]3(C)C[C@H]4O)C(OC3OC(C)C(OC4OCC(O)C(OC5OC(CO)C(O)C(O)C5O)C4O)C(O)C3O)C2O)C(O)C1OC1OCC(O)C(O)C1O` (some centres unmarked) [SO1861-EMCH], the Cell killing activity result in series [1] (10 μg/ml SO1861 (conjugate) + […] EGFdianthin) is given as “+”; in series [1] (10 μg/ml SO1861 (conjugate), without EGFdianthin), “−”. Further, the “activity when endosomal acidification is blocked (in words)” value with A431 cells was “strongly reduces the activity”. In addition, the “hydrolysis of the hydrazone bond (in words)” value in series [2] is “responsive towards hydrolysis and gets cleaved”. The “cell viability (in words)” value with HeLa cells [3] is listed as “reduced cell viability”.

For `CCN(CC)CCCC(C)Nc1ccnc2cc(Cl)ccc12` (centres unmarked) [chloroquine], the “inhibition of SO1861-mediated endosomal escape of the targeted toxin (in words)” value in the series with HeLa cells [4] is on record as “inhibit the SO1861-mediated endosomal escape of the targeted toxin”.

As for `CC1(C)[C@@H](O[C@H]2O[C@H](C(=O)O)[C@@H](O)[C@H](O)[C@H]2O[C@@H]2O[C@H](C(=O)O)[C@@H](O)[C@H](O)[C@H]2O)CC[C@]2(C)[C@H]3C(=O)C=C4[C@@H]5C[C@@](C)(C(=O)O)CC[C@]5(C)CC[C@@]4(C)[C@]3(C)CC[C@@H]12` [glycyrrhizic acid], the “enhancing effect on toxin toxicity (in words)” value in the series on NIH-3T3 cells is listed as “do hardly have any positive effect”.

For Pseudomonas exotoxin A: bacterial toxin, the “enhancement of cytotoxicity by saponins (in words)” value in series [5] is “remained unaffected”.

As for QS-21, the “endosomal escape enhancement (in words)” value with mammalian cells is “capable of enhancing endosomal escape”.

On to helianthoside, for which the “enhancing effect on toxin toxicity (in words)” value in the series on NIH-3T3 cells is on record as “do hardly have any positive effect”.

saporin: in series [6], the “relative cell viability (in words)” value was “do not or hardly have any influence on cell viability”.

(Values after US20220249674A1, “BIOACTIVE SAPONIN LINKED TO A FUNCTIONAL MOIETY” (priority 2019, published 2022).)
